In patent publication US6610315B2, “Topical application of stable hydroalcoholic compositions for maintaining or improving skin conditions, and delivering fragrance to skin” (3M Innovative Properties Company, priority 1995, dated 2003):

How the values were obtained:
[1] = system: E. coli ATCC8739 (lab strain 223); test: Minimum Inhibitory Concentration (MIC); format: cell-based
Method: (§1) An overnight culture of E. coli ATCC8739 (lab strain 223) and/or S. Aureus ATCC 14154 (lab strain 502) grown on trypticase soy agar plates was resuspended in Mueller-Hinton Broth to a cell density of 0.6-1.2×10^6 colony forming units per milliliter. Chlorhexidine samples were prepared by adjusting CHG to 512 μg/ml in Mueller-Hinton Broth and serially diluting in two-fold steps in Mueller-Hinton Broth. The CHG-containing Mueller-Hinton Broth was placed in 96-well sterile microliter plates and each well was inoculated with the bacteria. The plates were then incubated for 24-48 hrs at 37° C. Bacterial growth was determined visually by comparing the plates.

[2] = system: S. Aureus ATCC 14154 (lab strain 502); test: Minimum Inhibitory Concentration (MIC); format: cell-based
Method: as §1

[3] = Example 9, lowest concentration of CHG giving complete kill, 24-48 hrs at 37° C.
[4] = Example 24, CHG at 0.5% by weight where present

N=C(NCCCCCCNC(=N)NC(=N)Nc1ccc(Cl)cc1)NC(=N)Nc1ccc(Cl)cc1.O=C(O)[C@H](O)[C@@H](O)[C@H](O)[C@H](O)CO.O=C(O)[C@H](O)[C@@H](O)[C@H](O)[C@H](O)CO [0.5% CHG std., chlorhexidine gluconate]
4 µg/mL: MIC (μg/ml) E. coli [1, 3] | E. coli 223 MIC [1, 4] | MIC (μg/ml) S. aureus [2, 3] | S aureus 502 MIC [2, 4]
